11 compounds from paper PMC12655682, “Screening-Identified Oxazole-4-Carboxamide KB-2777 Exhibits In Vitro Anti-Coronavirus Activity” (Pharmaceutics, 2025) can be followed below.

Where two headings read alike, the source gives them in different places. Where only a bound is given, the exact number is not on record here.

For series [1], the system named is HCoV-NL63. Kind of series: Primary antiviral screening (virus inhibition) in HCoV-NL63-infected LLC-MK2 cells. The note with it: for SI (=CC50/EC50): HCoV-NL63/LLC-MK2; for antiviral effect: HCoV-NL63/LLC-MK2, up to 25 µM. In kind it is cell-based, Human coronavirus NL63. As for the experimental part:
For antiviral activity, cells in 96-well plates were infected and treated with test compounds as indicated and incubated for 48–72 h. Cell viability was quantified by WST (EZ-Cytox) at 450 nm on the same reader. Cytoprotective effect was calculated by normalizing to infected DMSO controls and converting to percent protection: % Protection = ((V_drug + virus − V_virus-only)/(V_mock − V_virus-only)) × 100.
We screened 11 oxazole-4-carboxamide derivatives (Figure 1) against HCoV-NL63 in LLC-MK2 cells and quantified antiviral activity and cytotoxicity (Figure 2). Several derivatives inhibited NL63 with distinct selectivity profiles. […] Visible crystals or precipitates formed at ≥50 µM without loss of viability or morphological change; therefore, downstream assays were performed at ≤25 µM.

The nature of series [2]: Cytotoxicity (EZ-Cytox WST) in LLC-MK2 cells. In kind it is cell-based. The conditions noted are these: rhesus monkey, 72 h exposure. As for the experimental part: Cells were seeded at 2 × 10^4 cells per well in 96-well plates and, after overnight attachment, exposed to test compounds for 72 h in maintenance medium. The final DMSO concentration was ≤0.1% (v/v) for all conditions, including vehicle controls. Cell viability was quantified using EZ-Cytox WST reagent (DoGenBio, Seoul, Republic of Korea) according to the manufacturer’s instructions; absorbance was read at 450 nm on a SpectraMax i3x microplate reader (Molecular Devices, San Jose, CA, USA). Viability for each well was normalized to the mean of vehicle-treated (mock) controls on the same plate and expressed as percent viability. Each condition included technical replicates (n = 3) per experiment. Concentration–response data from ≥3 independent experiments were fit to a four-parameter logistic (4PL) model in GraphPad Prism 10.1.2 (GraphPad Software, San Diego, CA, USA) (log10-transformed concentrations; bottom and top unconstrained).

Series [3] relates to HCoV-NL63. The experiment in a line: Combination (concentration matrix, ZIP synergy) HCoV-NL63/LLC-MK2. The note with it: HCoV-NL63/LLC-MK2, alone. In kind it is cell-based, Human coronavirus NL63. As to the method:
Concentration matrices were generated within the non-cytotoxic range for KB-2777 + nirmatrelvir (HCoV-NL63/LLC-MK2) and KB-2777 + GS-441524 (HCoV-OC43/Vero E6). Antiviral activity was measured at 48 h post-infection. Interaction surfaces and ZIP synergy scores were computed using SynergyFinder (v3) with default normalization (virus + DMSO control = 0% inhibition). Heatmaps and δ-surfaces were exported directly from SynergyFinder.

[4] abbreviates: Human coronavirus NL63, LLC-MK2, HCoV-NL63/LLC-MK2, primary screen, read-out: EC50.
Where [5] appears, read: HCoV-NL63/LLC-MK2, primary screen, read-out: EC50.
[6] abbreviates: Human coronavirus NL63, LLC-MK2, HCoV-NL63/LLC-MK2, primary screen.

Usually EC50 stands for the concentration needed to bring the measured effect to its halfway point. Broadly, the CC50 is the concentration at which the toxic effect on the cells reaches its halfway point. Regarding `COC(=O)[C@H](C)NC(=O)c1nc(-c2ccc(C(F)(F)F)cc2)oc1-c1ccc(SC)cc1` [KB-2738], in the series on HCoV-NL63 [1], the “SI (=CC50/EC50)” value came to 2.84. In addition, in the series on HCoV-NL63 [1] (setting [4]), the EC50 worked out at 7.7 µM. For the same compound, in series [2], the CC50 at 72 h is 21.8 µM.
As for `COC(=O)[C@H](C)NC(=O)c1nc(-c2ccc(C(F)(F)F)cc2)oc1-c1cccc(SC)c1` [KB-2742], the “SI (=CC50/EC50)” value with HCoV-NL63 [1] is recorded as less than 5.40. In the series on HCoV-NL63 [1] (setting [4]), the EC50 stood at 4.63 µM. Further, in series [2], the CC50 at 72 h is less than 25 µM.
For `COC(=O)[C@H](C)NC(=O)c1nc(-c2ccc(C(F)(F)F)cc2)oc1-c1cccc(OC)c1` [KB-2767] the same measures were 3.33, 9.26 µM and 30.8 µM.
As for `COC(=O)[C@H](CC(C)C)NC(=O)c1nc(-c2ccc(C(F)(F)F)cc2)oc1-c1cccc(SC)c1` [KB-2768], in the series with HCoV-NL63 [1], the “SI (=CC50/EC50)” value is 5.12. Also, the EC50 in the series on HCoV-NL63 [1] (setting [4]) was 6.66 µM. The same compound yielded a CC50 at 72 h in series [2] of 34.1 µM.
As to `CSc1cccc(-c2oc(-c3ccc(C(F)(F)F)cc3)nc2C(=O)N[C@@H](C)C(N)=O)c1` [KB-2769], in the series with HCoV-NL63 [1], the “SI (=CC50/EC50)” value was less than 2.67. Moreover, in the series on HCoV-NL63 [1] (setting [4]), the EC50 was determined as 2.34 µM. In addition, in series [2], the CC50 at 72 h is less than 6.25 µM.
For the compound `CSc1cccc(-c2oc(-c3ccc(C(F)(F)F)cc3)nc2C(=O)N[C@@H](CC(C)C)C(N)=O)c1` [KB-2771], the half-maximal effective concentration (EC50) is 4.27 µM with HCoV-NL63 [1] (setting [5]) and 4 to 5 µM in the series on HCoV-NL63 [1] (setting [6]). In addition, the CC50 at 72 h in series [2] is less than 25 µM.
Turning to `COC(=O)C(CC1CCNC1=O)NC(=O)c1nc(-c2ccc(C(F)(F)F)cc2)oc1-c1cccc(SC)c1` (stereo not shown) [KB-2772], the antiviral effect entry with HCoV-NL63 [1] is given as “no detectable antiviral effect”. In series [2], this compound yielded a CC50 at 72 h greater than 50 µM.
The like results for `COC(=O)C(CC1CCNC1=O)NC(=O)c1nc(-c2ccc(C(F)(F)F)cc2)oc1-c1cccc(OC)c1` (stereo not shown) [KB-2773] were, in that order, “no detectable antiviral effect” and less than 25 µM.
Consider `COC(=O)[C@H](CC(C)C)NC(=O)c1nc(-c2ccc(C(F)(F)F)cc2)oc1-c1cccc(OC)c1` [KB-2774], for which the figures for the EC50 in the series with HCoV-NL63 [1] (setting [5]) and in the series on HCoV-NL63 [1] (setting [6]) were 4.39 µM and 4 to 5 µM, respectively. The compound further had a CC50 at 72 h in series [2] of 25.2 µM.
For `COc1cccc(-c2oc(-c3ccc(C(F)(F)F)cc3)nc2C(=O)N[C@@H](C)C(N)=O)c1` [KB-2775], in the series with HCoV-NL63 [1], the antiviral effect entry is reported as “no detectable antiviral effect”. The compound further came in with a CC50 at 72 h in series [2] of 3.12 µM.
For the compound `CC(C)(C)[C@H](NC(=O)C(F)(F)F)C(=O)N1C[C@H]2[C@@H]([C@H]1C(=O)N[C@H](C#N)C[C@@H]1CCNC1=O)C2(C)C` [nirmatrelvir], in the series with HCoV-NL63 [3], the “antiviral activity of the single agent in the combination assay” value is reported as “limited activity”.
